# Source: ChEMBL document CHEMBL1201862, “PubChem BioAssay data set” (2004)
# Activity calls are given as the source filed them.
# Columns and labels:
# [1] = blockers of HIV-1 ZM109 envelope-driven cell-cell fusion – HeLa effector, CEM target cells, luciferase, cherry-pick, dose response (AID 652058); type: functional, cell-based;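 also: luciferase signal from HIV-1 Env mediated cell-cell fusion of effector and target cells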
# [2] = off-target signal loss in HeLa-CEM21 co-culture – HeLa F-luc CTL cells, cherry-picked, counter-screen for HIV-1 Env fusion inhibitor project, dose response (AID 652040); type: functional, cell-based;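 also: potency for signal decrease marking cytotoxic or nonspecific inhibition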
# [3] = blockers of HIV-1 envelope-mediated cell-cell fusion – cherry-pick, dose response (AID 652057); type: functional, cell-based
# [4] = HIV-1 AD8 envelope cell-cell fusion blockers – cherry-pick, dose response (AID 652062); type: functional, cell-based;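 also: luciferase signal from cell-cell fusion driven by HIV-1 clade B AD8 Env; potency is for inhibitors of fusion seen as a drop in luminescence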
# [5] = target: T1, Ubiquitin-conjugating enzyme E2 N (Homo sapiens, UniProt P61088); type: functional;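 also: Dose-response confirmation in a TR-FRET assay detecting UBC13-driven polyubiquitin chain formation, inhibition measured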
# T1 sequence (P61088 whole entry): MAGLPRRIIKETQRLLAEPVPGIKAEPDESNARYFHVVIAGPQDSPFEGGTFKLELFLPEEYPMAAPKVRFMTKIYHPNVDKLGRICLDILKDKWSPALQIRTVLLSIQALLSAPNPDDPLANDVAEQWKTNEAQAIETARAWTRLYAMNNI
# [6] = target: Paired box protein Pax-8 (Homo sapiens, UniProt Q06710); assay: PAX8 transcriptional activity inhibition in RMG-I – RMG-I cells, luciferase, cherry-pick, dose response (AID 687027); type: functional, cell-based;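 also: luciferase reporter driven by Pax8 target thyroperoxidase promoter measured by SteadyGlo luminescence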
# [7] = target: T2, Histone-lysine N-methyltransferase NSD2 (Homo sapiens, UniProt O96028); type: biochemical
# T2 sequence (O96028 whole entry): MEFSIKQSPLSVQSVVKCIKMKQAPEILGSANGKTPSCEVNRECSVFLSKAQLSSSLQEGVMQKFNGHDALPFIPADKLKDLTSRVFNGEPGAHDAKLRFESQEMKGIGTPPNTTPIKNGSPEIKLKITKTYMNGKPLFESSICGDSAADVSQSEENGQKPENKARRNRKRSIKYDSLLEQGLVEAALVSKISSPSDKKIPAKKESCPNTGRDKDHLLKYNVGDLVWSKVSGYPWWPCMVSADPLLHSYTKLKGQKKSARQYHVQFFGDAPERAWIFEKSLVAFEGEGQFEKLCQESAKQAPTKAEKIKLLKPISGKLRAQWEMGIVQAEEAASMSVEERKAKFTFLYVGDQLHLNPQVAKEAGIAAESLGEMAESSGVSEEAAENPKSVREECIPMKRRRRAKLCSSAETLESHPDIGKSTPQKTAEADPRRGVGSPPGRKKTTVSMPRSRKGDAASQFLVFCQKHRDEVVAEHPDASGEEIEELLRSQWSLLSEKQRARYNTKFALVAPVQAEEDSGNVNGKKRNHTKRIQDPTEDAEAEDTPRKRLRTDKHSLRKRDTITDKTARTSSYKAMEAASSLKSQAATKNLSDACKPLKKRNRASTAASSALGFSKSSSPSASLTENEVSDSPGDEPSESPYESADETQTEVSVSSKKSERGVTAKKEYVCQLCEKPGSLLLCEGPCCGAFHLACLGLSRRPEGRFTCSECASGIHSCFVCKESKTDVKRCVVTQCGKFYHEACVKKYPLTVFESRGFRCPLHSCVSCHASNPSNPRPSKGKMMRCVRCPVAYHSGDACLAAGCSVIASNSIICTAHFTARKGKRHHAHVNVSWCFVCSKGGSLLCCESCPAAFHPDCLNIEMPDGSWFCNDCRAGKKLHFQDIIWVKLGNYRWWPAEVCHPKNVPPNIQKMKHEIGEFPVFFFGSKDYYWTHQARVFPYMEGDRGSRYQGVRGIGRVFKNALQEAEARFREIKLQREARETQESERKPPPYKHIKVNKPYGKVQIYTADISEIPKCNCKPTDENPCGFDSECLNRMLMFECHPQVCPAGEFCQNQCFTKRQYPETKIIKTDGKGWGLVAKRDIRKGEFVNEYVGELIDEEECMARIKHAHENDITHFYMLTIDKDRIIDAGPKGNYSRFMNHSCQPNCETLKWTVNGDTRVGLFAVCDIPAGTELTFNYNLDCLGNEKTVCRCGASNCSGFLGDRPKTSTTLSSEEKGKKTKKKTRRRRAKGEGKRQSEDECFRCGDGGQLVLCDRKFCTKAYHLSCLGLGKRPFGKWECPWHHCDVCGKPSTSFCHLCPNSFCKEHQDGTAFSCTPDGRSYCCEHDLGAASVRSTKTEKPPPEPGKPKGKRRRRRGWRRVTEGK
# [8] = target: Nonstructural protein 1 (Influenza A virus, UniProt Q194T2); type: functional, Influenza A virus (A/California/07/2009(H1N1))
# [9] = target: Genome polyprotein (dengue virus type 2, UniProt P29990); assay: flavivirus cap methylation enzyme inhibition – biochemical, confirmation dose response, primary screen (AID 588689); type: functional
# [10] = Luminescence Cell-Based Dose Retest to Confirm Inhibitors of Cancer Stem Cells. [Related pubchem assays (depositor defined):AID2717, AID2721]; type: functional; conditions: Homo sapiens
# Paired box protein Pax-8, sequence (Q06710 whole entry): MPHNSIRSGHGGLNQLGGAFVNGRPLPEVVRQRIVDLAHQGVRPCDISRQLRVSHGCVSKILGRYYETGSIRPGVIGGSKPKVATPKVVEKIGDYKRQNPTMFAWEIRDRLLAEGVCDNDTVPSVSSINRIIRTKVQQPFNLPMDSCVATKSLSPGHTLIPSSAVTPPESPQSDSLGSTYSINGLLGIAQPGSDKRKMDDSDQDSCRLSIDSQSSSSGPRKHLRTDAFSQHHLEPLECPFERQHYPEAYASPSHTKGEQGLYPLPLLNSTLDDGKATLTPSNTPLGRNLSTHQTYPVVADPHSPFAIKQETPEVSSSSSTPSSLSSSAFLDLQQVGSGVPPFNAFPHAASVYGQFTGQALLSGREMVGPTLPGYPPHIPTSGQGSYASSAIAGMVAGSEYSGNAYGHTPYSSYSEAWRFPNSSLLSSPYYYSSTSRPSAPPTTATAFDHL
# Nonstructural protein 1, sequence (Q194T2 whole entry): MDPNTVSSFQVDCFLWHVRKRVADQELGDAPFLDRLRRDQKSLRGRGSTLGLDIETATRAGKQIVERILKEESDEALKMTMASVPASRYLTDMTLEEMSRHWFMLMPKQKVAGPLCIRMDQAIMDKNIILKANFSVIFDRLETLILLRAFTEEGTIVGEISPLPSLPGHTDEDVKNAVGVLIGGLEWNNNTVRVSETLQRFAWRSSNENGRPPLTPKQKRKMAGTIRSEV
# Genome polyprotein, sequence (P29990 2492-3391 limits assumed): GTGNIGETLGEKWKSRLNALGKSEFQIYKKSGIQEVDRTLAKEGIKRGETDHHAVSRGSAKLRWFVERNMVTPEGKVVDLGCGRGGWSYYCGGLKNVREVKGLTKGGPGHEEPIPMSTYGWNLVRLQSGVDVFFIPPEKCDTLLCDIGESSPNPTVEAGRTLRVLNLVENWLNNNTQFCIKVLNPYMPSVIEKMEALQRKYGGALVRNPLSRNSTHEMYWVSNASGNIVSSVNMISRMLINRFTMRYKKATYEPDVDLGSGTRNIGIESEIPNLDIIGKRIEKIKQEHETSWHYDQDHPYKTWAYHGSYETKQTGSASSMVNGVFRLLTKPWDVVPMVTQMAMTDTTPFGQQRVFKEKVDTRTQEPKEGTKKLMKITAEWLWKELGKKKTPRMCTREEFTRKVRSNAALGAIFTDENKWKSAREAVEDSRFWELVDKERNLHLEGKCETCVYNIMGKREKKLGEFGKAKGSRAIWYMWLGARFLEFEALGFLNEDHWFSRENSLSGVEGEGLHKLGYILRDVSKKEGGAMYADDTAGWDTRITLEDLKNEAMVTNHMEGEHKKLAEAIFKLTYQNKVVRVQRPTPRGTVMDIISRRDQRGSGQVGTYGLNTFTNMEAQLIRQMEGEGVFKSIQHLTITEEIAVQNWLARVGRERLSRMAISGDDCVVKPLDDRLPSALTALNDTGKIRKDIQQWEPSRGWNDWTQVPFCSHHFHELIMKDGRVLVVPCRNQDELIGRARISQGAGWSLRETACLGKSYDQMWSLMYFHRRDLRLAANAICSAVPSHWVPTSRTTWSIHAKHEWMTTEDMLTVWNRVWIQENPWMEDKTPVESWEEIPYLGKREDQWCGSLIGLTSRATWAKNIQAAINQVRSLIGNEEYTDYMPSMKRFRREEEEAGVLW
compound,measurement,setting,value
C=C(C)c1cccc(C(C)(C)NC(=O)Nc2ccc(Cl)cn2)c1,AC50,[1],0.604 µM (active)
same,AC50,[2],16.5 µM (active)
same,AC50,[3],50.7 µM (active)
same,AC50,[4],12.8 µM (active)
COc1ccc(NC(=O)C[S+]([O-])CC(=O)Nc2cc(Cl)ccc2OC)cc1 (stereo not drawn),IC50,[5],> 20 µM (inactive)
Cc1nc2ccccc2c(=O)n1NC(=O)/C=C/c1ccc(Br)cc1,IC50,[5],> 20 µM (inactive)
NC1=NC[C@H](Cc2ccc(O)cc2)N1CCc1cc(C(F)(F)F)cc(C(F)(F)F)c1,IC50,[5],> 20 µM (inactive)
CCOC(=O)C1=CN(Cc2cccc(-c3cccnc3)c2)S(=O)(=O)N(C)C1C (stereo not drawn),AC50,[6],59.2 µM (active)
NC(=O)NC(CC(=O)NNC(=O)c1ccccn1)c1ccccc1Cl (stereo not drawn),IC50,[5],> 20 µM (inactive)
CCCCCCNc1c([N+](=O)[O-])cc(C)cc1[N+](=O)[O-],AC50,[7],> 20 µM (inactive)
O=C(O)c1ccccc1N=N/C(=N/Nc1cc(S(=O)(=O)O)ccc1O)c1ccccc1,IC50,[8],21.9 µM (active)
same,AC50,[7],> 20 µM (inactive)
same,IC50,[9],19.1 µM (active)
C[C@@H]1CCCCO[C@H](CN(C)C(=O)Nc2ccc(C(F)(F)F)cc2)[C@H](C)CN([C@@H](C)CO)C(=O)c2cc(NS(=O)(=O)c3ccc(Cl)cc3)ccc2O1,AC50,[6],16.4 µM (active)
COc1cccc(/C=N/NC(=O)C(=O)NCc2cccnc2)c1O,IC50,[8],8.2 µM (active)
CCN(CC)CCOc1ccc(/C(=C(/Cl)c2ccccc2)c2ccccc2)cc1 [ENCLOMIPHENE],AC50,[10],1.6 µM (active)
same,IC50,[5],> 20 µM (inactive)
OC[C@H]1O[C@@H](n2cnc3c(NCc4ccco4)ncnc32)[C@H](O)[C@@H]1O [KINETIN RIBOSIDE],AC50,[6],2.25 µM (active)
